Results reported in US20170035011A1, “METHODS OF IMPROVING GERMINATION OF PLANT EMBRYOS” (WEYERHAEUSER NR COMPANY, priority 2015, published 2017).

What was measured:
manufactured seed = assay: Root initiation with palatinose in synthetic gametophyte of manufactured seed; type: in vivo; settings: palatinose from 0 to 40 g/l in 20 g/l increments; base sugar sucrose or glucose
Excerpt: The beneficial properties of palatinose are not limited to multiplication. The addition of palatinose to the synthetic gametophyte of manufactured seed has benefits for root initiation. […] This is true when the base sugar was sucrose or glucose.

loblolly pine embryos = assay: Germination and germinant organ lengths of resulting embryos, Example 2; type: in vivo
Excerpt: As used herein, the term “germination” refers to a physiological process that results in the elongation and growth of a plant embryo organs (root, hypocotyls, cotyledons) and initiation of leaves (epicotyl by the shoot apex located at the base of the cotyledons) after 1 week in the dark followed by 6 weeks in a light room at room temperature.
As used herein, the term “category 1” germination is defined by presence of a minimum of a 3 mm root, and a tuft of at least 5 epicotyl leaves, each approximately 5 mm long.
“Category 2” germination is defined as for category 1, but where epicotyls leaf presence is observed, but not meeting the 5 leaves by 5 mm length specification.
Several parameters may be measured to determine the quality of the germinants, such as root, hypocotyl, longest cotyledon leaf length, and epicotyls leaf length. […]
The responses analyzed for this report are the weekly growth, embryos per d-frame, category 1 germination, and for category 1+2: germination, germinants per d-frame, root length, the hypocotyl length, and the epicotyl length.
The proportion responses are analyzed using a generalized linear model with a logit link and binomial distribution after categorizing as a 0/1 response. The continuous responses were analyzed with a mixed linear model after taking the log transformation to account for increasing variability with higher means. […]

loblolly pine SE = assay: Development stage studies with palatinose in maltose and glucose media; type: cell-based; settings: standard maltose and glucose media
Excerpt: In loblolly pine SE studies, palatinose was initially used as a non-metabolizable sugar for supplementing osmotic level. […] When used as a part of liquid multiplication media its effect depended on the sugar moieties it was associated with, and its ratio with those moieties. When paired with maltose alone, growth was largely or completely halted depending on sugar ratio, whereas when used with glucose, growth was like control (maltose only).

Row | Structure (SMILES) | root presence (manufactured seed) | category 1 germination percentage (loblolly pine embryos; combining the outcomes of 3, 5, and 7 weeks of treatment) [%] | embryo formation (loblolly pine SE) | Category 1 germination (loblolly pine embryos; Table 7 comparison)
1 | O=C(CO)[C@@H](O)[C@H](O)[C@H](O)CO[C@H]1O[C@H](CO)[C@@H](O)[C@H](O)[C@H]1O [palatinose, 6-O-α-d-glucopyranosyl-D-fructose] | root presence improved | 9.1 | inhibited embryo formation | 
2 | OC[C@H]1O[C@H](O[C@H]2O[C@H](CO)[C@@H](O)[C@H](O)[C@H]2O)[C@H](O)[C@@H](O)[C@@H]1O [trehalose] |  |  |  | no evidence that adding trehalose had an effect
